The target in assay [1] is T1, Recombinant human IKKβ (residues 1-737) (Homo sapiens, UniProt O14920).
T1 construct: Recombinant human IKKβ (residues 1-737); GST (C); made in house
T1 sequence (O14920 1-737): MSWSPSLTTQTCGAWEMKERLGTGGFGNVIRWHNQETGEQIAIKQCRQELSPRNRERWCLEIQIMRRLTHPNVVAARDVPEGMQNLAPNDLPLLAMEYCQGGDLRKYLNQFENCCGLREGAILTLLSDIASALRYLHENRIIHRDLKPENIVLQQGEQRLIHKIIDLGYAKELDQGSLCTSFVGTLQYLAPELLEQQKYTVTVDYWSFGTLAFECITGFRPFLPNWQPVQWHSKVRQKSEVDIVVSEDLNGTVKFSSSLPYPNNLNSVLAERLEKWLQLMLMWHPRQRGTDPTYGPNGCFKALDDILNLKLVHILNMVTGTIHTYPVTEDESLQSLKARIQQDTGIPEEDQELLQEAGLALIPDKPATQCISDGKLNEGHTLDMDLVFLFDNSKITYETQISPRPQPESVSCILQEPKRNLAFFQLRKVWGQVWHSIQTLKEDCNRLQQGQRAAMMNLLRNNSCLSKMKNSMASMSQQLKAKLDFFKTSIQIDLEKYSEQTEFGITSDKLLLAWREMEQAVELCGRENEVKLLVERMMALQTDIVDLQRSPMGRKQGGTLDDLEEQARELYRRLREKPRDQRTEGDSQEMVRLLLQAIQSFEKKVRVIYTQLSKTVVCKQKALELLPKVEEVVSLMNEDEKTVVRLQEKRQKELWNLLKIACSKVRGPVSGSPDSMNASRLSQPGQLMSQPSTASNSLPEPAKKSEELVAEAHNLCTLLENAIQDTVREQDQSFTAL
In words: IKK2 assay (TR-FRET). Type of assay: biochemical. The conditions noted are these: ATP 1 μM final, read-out: pIC50 against IKK2 (converted). The gist of the method:
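TR-FRET readout (665 nm over 620 nm Eu reference) of GST-IB Ser32/36 phosphorylation after 60 min detection. Reaction: 1 μM ATP, 25 nM substrate, 0.5-5 nM GST-fused IKKβ 1-737 from baculovirus, pH 7.4 HEPES buffer, 1.7% DMSO, 15 min room temperature, EDTA-terminated.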
Background: TR-FRET usually uses a lanthanide donor and a delayed reading to cut background.

Assay [2] has as its system human monocyte stimulated cytokine production (TNF-α). Put plainly: Monocyte assay (LPS-stimulated TNF-α production). Type of assay: cell-based. The conditions noted are these: 24 h, 200 ng/mL LPS, TNF-α by ELISA. The gist of the method:
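TNF-α release was measured by ELISA after 24 hrs at 37 C. Cells were stimulated with 200 ng/mL E. coli LPS, with compound added 30 minutes beforehand (0.1% DMSO vehicle). Cells were Ficoll/MACS-isolated CD14+ human monocytes adhered at 1×10^6 cells/mL, and viability was checked by trypan blue.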
Background: An ELISA detects its analyte on a solid surface through an enzyme-linked reagent.

Where a name gives a salt, the structure may show the parent alone.

Consider `CCS(=O)(=O)N1CCC(c2c[nH]c3c(C(N)=O)cc(-c4cc(CNC)cc(CNC)c4)cc23)CC1` [Example 270, 5-{3,5-bis[(methylamino)methyl]phenyl}-3-[1-(ethylsulfonyl)-4-piperidinyl]-1H-indole-7-carboxamide trifluoroacetate], for which the IC50 in assay [1] was no more than 10 µM; in assay [2], greater than 1 µM.
In the same order, the values of `CCNCc1cc(-c2cc(C(N)=O)c3[nH]cc(C4CCN(S(=O)(=O)CC)CC4)c3c2)ccc1F` [Example 271, 5-{3-[(ethylamino)methyl]-4-fluorophenyl}-3-[1-(ethylsulfonyl)-4-piperidinyl]-1H-indole-7-carboxamide trifluoroacetate] are no more than 10 µM and no more than 1.5 µM.
As for `CCS(=O)(=O)N1CCC(c2c[nH]c3c(C(N)=O)cc(-c4ccc(F)c(CNC(CO)CO)c4)cc23)CC1` [Example 272, 3-[1-(ethylsulfonyl)-4-piperidinyl]-5-[4-fluoro-3-({[2-hydroxy-1-(hydroxymethyl)ethyl]amino}methyl)phenyl]-1H-indole-7-carboxamide trifluoroacetate (salt)], the IC50 is no more than 10 µM in assay [1] and greater than 1 µM in assay [2].
In the case of `CCS(=O)(=O)N1CCC(c2c[nH]c3c(C(N)=O)cc(-c4ccc(F)c(CN[C@@H](C)CO)c4)cc23)CC1` [Example 273, 3-[1-(ethylsulfonyl)-4-piperidinyl]-5-[4-fluoro-3-({[(1S)-2-hydroxy-1-methylethyl]amino}methyl)phenyl]-1H-indole-7-carboxamide trifluoroacetate (salt)], the IC50 in assay [1] is no more than 10 µM; in assay [2], no more than 1.5 µM.
On to `CCS(=O)(=O)N1CCC(c2c[nH]c3c(C(N)=O)cc(-c4ccc(F)c(CNC5CC5)c4)cc23)CC1` [Example 274, 5-{3-[(cyclopropylamino)methyl]-4-fluorophenyl}-3-[1-(ethylsulfonyl)-4-piperidinyl]-1H-indole-7-carboxamide trifluoroacetate], for which the values for the IC50 in assay [1] and in assay [2] were no more than 10 µM and no more than 1.5 µM, respectively.
As for `CCS(=O)(=O)N1CCC(c2c[nH]c3c(C(N)=O)cc(-c4ccc(F)c(CNC5CCC5)c4)cc23)CC1` [Example 275, 5-{3-[(cyclobutylamino)methyl]-4-fluorophenyl}-3-[1-(ethylsulfonyl)-4-piperidinyl]-1H-indole-7-carboxamide trifluoroacetate], the IC50 is no more than 10 µM in assay [1] and no more than 1.5 µM in assay [2].
Regarding `CCS(=O)(=O)N1CCC(c2c[nH]c3c(C(N)=O)cc(-c4cccc(CN5CCCC5)c4)cc23)CC1` [Example 276, 3-[1-(ethylsulfonyl)-4-piperidinyl]-5-[3-(1-pyrrolidinylmethyl)phenyl]-1H-indole-7-carboxamide trifluoroacetate], the IC50 in assay [1] is no more than 10 µM; in assay [2] it was no more than 1.5 µM.
`CCS(=O)(=O)N1CCC(c2c[nH]c3c(C(N)=O)cc(-c4cccc(C(C)NC)c4)cc23)CC1` (centres unmarked) [Example 292, 3-[1-(ethylsulfonyl)-4-piperidinyl]-5-{3-[1-(methylamino)ethyl]phenyl}-1H-indole-7-carboxamide trifluoroacetate]: the values for the IC50 in assay [1] and in assay [2] were no more than 10 µM and no more than 1.5 µM, respectively.
As to `CCS(=O)(=O)N1CCC(c2c[nH]c3c(C(N)=O)cc(-c4cccc(C(C)NC(C)C)c4)cc23)CC1` (centres unmarked) [Example 293, 3-[1-(ethylsulfonyl)-4-piperidinyl]-5-(3-{1-[(1-methylethyl)amino]ethyl}phenyl)-1H-indole-7-carboxamide trifluoroacetate], the IC50 is no more than 10 µM in assay [1] and no more than 1.5 µM in assay [2].
Turning to `CCS(=O)(=O)N1CCC(c2c[nH]c3c(C(N)=O)cc(-c4cccc(C(C)NCC(C)C)c4)cc23)CC1` (centres unmarked) [Example 294, 3-[1-(ethylsulfonyl)-4-piperidinyl]-5-(3-{1-[(2-methylpropyl)amino]ethyl}phenyl)-1H-indole-7-carboxamide trifluoroacetate], the values for the IC50 in assay [1] and in assay [2] were no more than 10 µM and no more than 1.5 µM, respectively.
Consider `CCS(=O)(=O)N1CCC(c2c[nH]c3c(C(N)=O)cc(-c4cccc(C(C)NC5CCC5)c4)cc23)CC1` (centres unmarked) [Example 295, 5-{3-[1-(cyclobutylamino)ethyl]phenyl}-3-[1-(ethylsulfonyl)-4-piperidinyl]-1H-indole-7-carboxamide trifluoroacetate], for which the results for the IC50 in assay [1] and in assay [2] were no more than 10 µM and no more than 1.5 µM, respectively.
For `CCS(=O)(=O)N1CCC(c2c[nH]c3c(C(N)=O)cc(-c4cccc(C(C)N5CCCC5)c4)cc23)CC1` (centres unmarked) [Example 296, 3-[1-(ethylsulfonyl)-4-piperidinyl]-5-{3-[1-(1-pyrrolidinyl)ethyl]phenyl}-1H-indole-7-carboxamide trifluoroacetate] the same measures were no more than 10 µM and no more than 1.5 µM.
Regarding `CCS(=O)(=O)N1CCC(c2c[nH]c3c(C(N)=O)cc(-c4cccc(C5CSCCN5)c4)cc23)CC1` (centres unmarked) [Example 297, 3-[1-(ethylsulfonyl)-4-piperidinyl]-5-[3-(3-thiomorpholinyl)phenyl]-1H-indole-7-carboxamide trifluoroacetate], the IC50 in assay [1] was no more than 10 µM; in assay [2] it was no more than 1.5 µM.
For `CCS(=O)(=O)N1CCC(c2c[nH]c3c(C(N)=O)cc(-c4ccc(C5CNCCN5)s4)cc23)CC1` (centres unmarked) [Example 298, 3-[1-(ethylsulfonyl)-4-piperidinyl]-5-[5-(2-piperazinyl)-2-thienyl]-1H-indole-7-carboxamide trifluoroacetate], the figures for the IC50 in assay [1] and in assay [2] were no more than 10 µM and no more than 1.5 µM, respectively.
As for `CCS(=O)(=O)N1CCC(c2c[nH]c3c(C(N)=O)cc(-c4ccc(C5CNCCN5)cc4)cc23)CC1` (centres unmarked) [Example 299, 3-[1-(ethylsulfonyl)-4-piperidinyl]-5-[4-(2-piperazinyl)phenyl]-1H-indole-7-carboxamide trifluoroacetate], the results for the IC50 in assay [1] and in assay [2] were no more than 10 µM and greater than 1 µM, respectively.
`CCS(=O)(=O)N1CCC(c2c[nH]c3c(C(N)=O)cc(-c4cccc(C5CNCCN5)c4)cc23)CC1` (centres unmarked) [Example 300, 3-[1-(ethylsulfonyl)-4-piperidinyl]-5-[3-(2-piperazinyl)phenyl]-1H-indole-7-carboxamide trifluoroacetate]: the IC50 in assay [1] is no more than 10 µM; in assay [2], greater than 1 µM.
As for `CCS(=O)(=O)N1CCC(c2c[nH]c3c(C(N)=O)cc(-c4ccc(N5CCOCC5)nn4)cc23)CC1` [Example 301, 3-[1-(ethylsulfonyl)-4-piperidinyl]-5-[6-(4-morpholinyl)-3-pyridazinyl]-1H-indole-7-carboxamide trifluoroacetate], the IC50 in assay [1] was no more than 10 µM; in assay [2] it was greater than 1 µM.
`CCS(=O)(=O)N1CCC(c2c[nH]c3c(C(N)=O)cc(-c4ccc(N5CCCC5)nn4)cc23)CC1` [Example 302, 3-[1-(ethylsulfonyl)-4-piperidinyl]-5-[6-(1-pyrrolidinyl)-3-pyridazinyl]-1H-indole-7-carboxamide trifluoroacetate]: the values for the IC50 in assay [1] and in assay [2] were no more than 10 µM and greater than 1 µM, respectively.
For the compound `CCS(=O)(=O)N1CCC(c2c[nH]c3c(C(N)=O)cc(-c4ccccc4CNC)cc23)CC1` [Example 303, 3-[1-(ethylsulfonyl)-4-piperidinyl]-5-{2-[(methylamino)methyl]phenyl}-1H-indole-7-carboxamide trifluoroacetate], the IC50 in assay [1] is no more than 10 µM; in assay [2], greater than 1 µM.
`CCS(=O)(=O)N1CCC(c2c[nH]c3c(C(N)=O)cc(-c4cccc(CNCc5cccs5)c4)cc23)CC1` [Example 304, 3-[1-(ethylsulfonyl)-4-piperidinyl]-5-(3-{[(2-thienylmethyl)amino]methyl}phenyl)-1H-indole-7-carboxamide trifluoroacetate]: the IC50 in assay [1] was no more than 10 µM; in assay [2], no more than 1.5 µM.
On to `CCS(=O)(=O)N1CCC(c2c[nH]c3c(C(N)=O)cc(-c4cccc(CNCc5ccc(C)o5)c4)cc23)CC1` [Example 305, 3-[1-(ethylsulfonyl)-4-piperidinyl]-5-[3-({[(5-methyl-2-furanyl)methyl]amino}methyl)phenyl]-1H-indole-7-carboxamide trifluoroacetate], for which the IC50 in assay [1] is no more than 10 µM; in assay [2], no more than 1.5 µM.
For the compound `CCS(=O)(=O)N1CCC(c2c[nH]c3c(C(N)=O)cc(-c4cccc(CNC[C@H]5CCCO5)c4)cc23)CC1` [Example 306, 3-[1-(ethylsulfonyl)-4-piperidinyl]-5-[3-({[(2R)-tetrahydro-2-furanylmethyl]amino}methyl)phenyl]-1H-indole-7-carboxamide trifluoroacetate], the IC50 in assay [1] was no more than 10 µM; in assay [2] it was no more than 1.5 µM.

(Values after patent US8063071B2 (GlaxoSmithKline, LLC, priority 2007, dated 2011).)
